From EP0454060B1, “3-(Mercaptoalkyl)-quinazoline-2,4(1H,3H)-diones, processes for their preparation, and pharmaceutical compositions” (priority 1990, dated 1991)
Read-outs that look alike come from different tables or passages of the source.

What was measured:
Vaccinia Lister [1] = assay type: cell-based, Vaccinia-Virus; details: Beispielreihe 5b, Hühnerembryonalfibroblasten, Vaccinia Lister
Influenza A/WSN = assay: One-step replication cycle on chick embryo cells; assay type: cell-based, Influenza-Virus; details: Beispielreihe 5b, Hühnerembryonalfibroblasten, Influenza A/WSN
Vaccinia Lister [2] = assay: One-step replication cycle on permanent human kidney cell line
[3] = tested on: SE-spezifischer rosettenbildender Zellen; assay: Rosette test (SE-specific rosettes); assay type: in vivo, Maus (Inzuchtstamm CBA); details: oral administration
From the text: Der Nachweis immunstimulierender Effekte wurde weiterhin an der Maus (Inzuchtstamm CBA) und u. a. mit Hilfe folgender Nachweismethoden geführt: • Plaque-Test zum Nachweis von SE-spezifischen IgM- und IgG-PBZ, • Rosettentest.
Aus den Werten wird deutlich, daß die Verbindungen der allgemeinen Formel I einen gut nachweisbaren Effekt auf die Effektor-T-Lymphozyten-abhängige verzögerte Uberempfindlichkeit haben. Kontaktdermatitis-Werte ab 120 (≙ 20 % Steigerung gegenüber der Kontrolle) bzw. unter 80 werden als Nachweis eines stimulatorischen bzw. suppressorischen Effektes angesehen. Antikörpertiter-Differenzen von >+1 bzw. <-1 verdeutlichen den stimulatorischen bzw. suppressorischen Effekt der Substanzen auf die humorale Immunantwort. 2. Untersuchungen zur immunstimulierenden Wirkung • 2.1 Plaque-Test zum Nachweis von SE-spezifischen IgM- und IgG-PBZ Zur Prüfung immunstimulierender Effekte wurde u. a. auch der Einfluß von Verbindungen der allgemeinen Formel I auf die humorale Immunantwort an Mäusen des Inzuchtstammes CBA und mittels Hämolyse-Plaque-Test (HPT) untersucht. Diese Technik erlaubt die quantitative und getrennte Erfassung IgM- und IgG-Antikörper produzierender Zellen (= Plaque bildende Zellen; PBZ). Die Immunisierung mit Schaferythrozyten (SE) erfolgte am Tag 0, die Substanzapplikation (Tagesdosis 1.10^-5 mol/kg Körpermasse; peroral) an den Tagen -1 bis +3 (zur Erfassung der IgM-PBZ) bzw. an den Tagen +1 bis +5 (zur Erfassung der IgG-PBZ). • 2.2 Ergebnisse: Durch tägliche und über 5 Tage gehende Gabe von 2,0 mg der Verbindung gemäß Beispiel 1 pro kg Körpermasse konnte die Zahl der IgM-PBZ auf einen Durchschnittswert von 352 % im Vergleich zur Kontrolle (100 %) gesteigert werden. Die gleiche Form der Behandlung führte zu einer Erhöhung der IgG-PBZ auf 497 % (Kontrolle: 100 %). In beiden Fällen erwies sich die Differenz zur Kontrolle im t-Test mit p < 0,001 als signifikant. […]

[4] = tested on: Herpes simplex Typ 1 Kupka; assay: One-step replication cycle on permanent human kidney cell line; details: Beispielreihe 5a
[5] = Herpes simplex Typ 1, 125 µmol/l
[6] = Herpes simplex Typ 1, 250 µmol/l

**Q.** With `COc1cc2[nH]c(=O)n(CCCS)c(=O)c2cc1OC` [Beispiel 2, 3-(3-Mercaptoprop-1-yl)-6,7-dimethoxychinazolin-2,4(1H,3H)-dion] as the compound, how does the “% Hemmung” value (Vaccinia Lister [1]; 125 µmol/l) read?
**A.** The value was > 99,99%.

**Q.** And the “Senkung des Virusertrages im Vergleich zur unbehandelten Kontrolle” value (Vaccinia Lister [1]; 125 µmol/l)?
**A.** Its value is 5,0 log10 TCID50/02 ml.

**Q.** What about the “% Hemmung” value (Vaccinia Lister [1]; 250 µmol/l) of the same compound?
**A.** Its value is > 99,99%.

**Q.** What about the “Senkung des Virusertrages im Vergleich zur unbehandelten Kontrolle” value (Vaccinia Lister [1]; 250 µmol/l) of the same compound?
**A.** The value was 5,0 log10 TCID50/02 ml.

**Q.** And the “Senkung des Virusertrages im Vergleich zur unbehandelten Kontrolle” value (Vaccinia Lister [1]; 31,25 µmol/l)?
**A.** The value was 3,0 log10 TCID50/02 ml.

**Q.** And the “% Hemmung” value (Vaccinia Lister [1]; 31,25 µmol/l, 31.25 µM)?
**A.** The value was 99,9%.

**Q.** What about the “Senkung des Virusertrages im Vergleich zur unbehandelten Kontrolle” value (Vaccinia Lister [1]; 62,5 µmol/l) of the same compound?
**A.** The value was 3,5 log10 TCID50/02 ml.

**Q.** And the “% Hemmung” value (Vaccinia Lister [1]; 62,5 µmol/l, 62.5 µM)?
**A.** Its value is 99,93%.

**Q.** And the “% Hemmung” value (Influenza A/WSN; 125 µmol/l)?
**A.** The value was > 99,99%.

**Q.** And the “Senkung des Virusertrages im Vergleich zur unbehandelten Kontrolle” value (Influenza A/WSN; 125 µmol/l)?
**A.** Its value is 5,0 log10 TCID50/02 ml.

**Q.** What about the “% Hemmung” value (Influenza A/WSN; 250 µmol/l) of the same compound?
**A.** Its value is > 99,99%.

**Q.** What about the “Senkung des Virusertrages im Vergleich zur unbehandelten Kontrolle” value (Influenza A/WSN; 250 µmol/l) of the same compound?
**A.** The value was 5,0 log10 TCID50/02 ml.

**Q.** What about the “Senkung des Virusertrages im Vergleich zur unbehandelten Kontrolle” value (Influenza A/WSN; 62,5 µmol/l) of the same compound?
**A.** Its value is 2,0 log10 TCID50/02 ml.

**Q.** What about the “% Hemmung” value (Influenza A/WSN; 62,5 µmol/l, 62.5 µM) of the same compound?
**A.** The value was 99,0%.

**Q.** And the “% Hemmung” value (Vaccinia Lister [2]; Beispielreihe 5a, 125 µmol/l)?
**A.** Its value is > 99,99%.

**Q.** What about the “Senkung des Virusertrages im Vergleich zur unbehandelten Kontrolle” value (Vaccinia Lister [2]; Beispielreihe 5a, 125 µmol/l) of the same compound?
**A.** Its value is 5,0 log10 TCID50/0,2 ml.

**Q.** What about the “% Hemmung” value (Vaccinia Lister [2]; Beispielreihe 5a, 250 µmol/l) of the same compound?
**A.** Its value is > 99,99%.

**Q.** And the “Senkung des Virusertrages im Vergleich zur unbehandelten Kontrolle” value (Vaccinia Lister [2]; Beispielreihe 5a, 250 µmol/l)?
**A.** Its value is 5,0 log10 TCID50/0,2 ml.

**Q.** And the “Senkung des Virusertrages im Vergleich zur unbehandelten Kontrolle” value (Vaccinia Lister [2]; Beispielreihe 5a, 31,25 µmol/l)?
**A.** The value was 2,84 log10 TCID50/0,2 ml.

**Q.** And the “% Hemmung” value (Vaccinia Lister [2]; Beispielreihe 5a, 31,25 µmol/l, 31.25 µM)?
**A.** The value was 99,84%.

**Q.** And the “Senkung des Virusertrages im Vergleich zur unbehandelten Kontrolle” value (Vaccinia Lister [2]; Beispielreihe 5a, 62,5 µmol/l)?
**A.** The value was 5,0 log10 TCID50/0,2 ml.

**Q.** And the “% Hemmung” value (Vaccinia Lister [2]; Beispielreihe 5a, 62,5 µmol/l, 62.5 µM)?
**A.** The value was > 99,99%.

**Q.** And the “SE-spezifischer rosettenbildender Zellen” value [3]?
**A.** Its value is “signifikante Förderung”.

**Q.** And the “% Hemmung” value [4, 5]?
**A.** The value was > 99,99%.

**Q.** What about the “Senkung des Virusertrages im Vergleich zur unbehandelten Kontrolle” value [4, 5] of the same compound?
**A.** Its value is 6,5 log10 TCID50/0,2 ml.

**Q.** What about the “% Hemmung” value [4, 6] of the same compound?
**A.** The value was > 99,99%.

**Q.** What about the “Senkung des Virusertrages im Vergleich zur unbehandelten Kontrolle” value [4, 6] of the same compound?
**A.** Its value is 6,5 log10 TCID50/0,2 ml.

**Q.** And the “Senkung des Virusertrages im Vergleich zur unbehandelten Kontrolle” value ([4]; Herpes simplex Typ 1, 31,25 µmol/l)?
**A.** The value was 3,67 log10 TCID50/0,2 ml.

**Q.** And the “% Hemmung” value ([4]; Herpes simplex Typ 1, 31,25 µmol/l, 31.25 µM)?
**A.** The value was 99,97%.

**Q.** And the “Senkung des Virusertrages im Vergleich zur unbehandelten Kontrolle” value ([4]; Herpes simplex Typ 1, 62,5 µmol/l)?
**A.** Its value is 5,0 log10 TCID50/0,2 ml.

**Q.** What about the “% Hemmung” value ([4]; Herpes simplex Typ 1, 62,5 µmol/l, 62.5 µM) of the same compound?
**A.** The value was > 99,99%.
